Assay results reported in patent US8691859B2 (priority 2005, dated 2014).
Values after ≈ are worked out from the molar mass of the structure shown. Where two headings read alike, the source gives them in different places.

How the values were obtained:
[1] = test system: B. anthracis GFP sterne spores; assay: microbe, parasite or virus in culture; format: cell-based; details: Bacillus anthracis
[2] = target: botulinum neurotoxin serotype A light chain (Clostridium botulinum, UniProt P0DPI0); format: biochemical, Clostridium botulinium
anthrax lethal factor = anthrax lethal factor (Bacillus anthracis, UniProt P15917); format: biochemical
[3] = test system: B. anthracis GFP sterne vegetative cells; assay: microbe, parasite or virus in culture; format: cell-based; details: Bacillus anthracis, read-out: MIC B. anthracis vegetative cells
Sterne spores = format: cell-based, B. anthracis
B. megaterium = assay: microbe, parasite or virus in culture; format: cell-based; details: Priestia megaterium
[4] = test system: Burkholderia thailandensis; assay: microbe, parasite or virus in culture; format: cell-based
K. pneumoniae = assay: microbe, parasite or virus in culture; format: cell-based; details: Klebsiella pneumoniae
E. coli = assay: microbe, parasite or virus in culture; format: cell-based; details: Escherichia coli
B. anthracis Ames = assay: microbe, parasite or virus in culture; format: cell-based; details: Bacillus anthracis
P. aeruginosa PAO1 = assay: microbe, parasite or virus in culture; format: cell-based; details: Pseudomonas aeruginosa
Ames spores [5] = assay: microbe, parasite or virus in culture; format: cell-based, B. anthracis; details: Bacillus anthracis
[6] = test system: Burkholderia pseudomallei; assay: microbe, parasite or virus in culture; format: cell-based
Burkholderia mallei = assay: microbe, parasite or virus in culture; format: cell-based
Ames spores [7] = assay: microbe, parasite or virus in culture; format: cell-based, B. anthracis; details: Bacillus anthracis; remark: listed apart in the source
[8] = test system: Methicillin resistant S. aureus; assay: microbe, parasite or virus in culture; format: cell-based; details: Staphylococcus aureus
E. feacalis = assay: organism not typed; format: cell-based
B. pumilus = assay: microbe, parasite or virus in culture; format: cell-based; details: Bacillus pumilus
Y. pestis = assay: microbe, parasite or virus in culture; format: cell-based; details: Yersinia pestis
S. aureus = assay: microbe, parasite or virus in culture; format: cell-based; details: Staphylococcus aureus
B. brevis = assay: microbe, parasite or virus in culture; format: cell-based; details: Brevibacillus brevis
B. licheniformis = assay: microbe, parasite or virus in culture; format: cell-based; details: Bacillus licheniformis
B. subtilis = assay: microbe, parasite or virus in culture; format: cell-based; details: Bacillus subtilis
B. cepacia = assay: microbe, parasite or virus in culture; format: cell-based; details: Burkholderia cepacia
Sterne GFP spores = format: cell-based, B. anthracis
B. vollum [9] = assay: organism not typed; format: cell-based
B. vollum [10] = assay: organism not typed; format: cell-based; remark: listed apart in the source
[11] = read-out: MIC B. anthracis spores

Chain of botulinum neurotoxin serotype A light chain (P0DPI0 2-448 limits assumed): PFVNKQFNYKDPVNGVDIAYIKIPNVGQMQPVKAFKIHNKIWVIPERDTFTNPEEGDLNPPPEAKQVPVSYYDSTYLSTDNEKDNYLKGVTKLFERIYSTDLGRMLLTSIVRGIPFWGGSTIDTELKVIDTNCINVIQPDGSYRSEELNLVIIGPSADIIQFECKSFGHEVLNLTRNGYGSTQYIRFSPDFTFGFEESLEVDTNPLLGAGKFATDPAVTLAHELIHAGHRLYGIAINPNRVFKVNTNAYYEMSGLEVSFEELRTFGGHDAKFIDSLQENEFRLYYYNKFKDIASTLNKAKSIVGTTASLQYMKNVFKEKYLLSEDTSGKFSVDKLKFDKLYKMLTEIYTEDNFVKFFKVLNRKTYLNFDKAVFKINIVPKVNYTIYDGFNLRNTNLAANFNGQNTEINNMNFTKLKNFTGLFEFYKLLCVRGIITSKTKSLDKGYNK
Chain of anthrax lethal factor (P15917 34-809 limits assumed): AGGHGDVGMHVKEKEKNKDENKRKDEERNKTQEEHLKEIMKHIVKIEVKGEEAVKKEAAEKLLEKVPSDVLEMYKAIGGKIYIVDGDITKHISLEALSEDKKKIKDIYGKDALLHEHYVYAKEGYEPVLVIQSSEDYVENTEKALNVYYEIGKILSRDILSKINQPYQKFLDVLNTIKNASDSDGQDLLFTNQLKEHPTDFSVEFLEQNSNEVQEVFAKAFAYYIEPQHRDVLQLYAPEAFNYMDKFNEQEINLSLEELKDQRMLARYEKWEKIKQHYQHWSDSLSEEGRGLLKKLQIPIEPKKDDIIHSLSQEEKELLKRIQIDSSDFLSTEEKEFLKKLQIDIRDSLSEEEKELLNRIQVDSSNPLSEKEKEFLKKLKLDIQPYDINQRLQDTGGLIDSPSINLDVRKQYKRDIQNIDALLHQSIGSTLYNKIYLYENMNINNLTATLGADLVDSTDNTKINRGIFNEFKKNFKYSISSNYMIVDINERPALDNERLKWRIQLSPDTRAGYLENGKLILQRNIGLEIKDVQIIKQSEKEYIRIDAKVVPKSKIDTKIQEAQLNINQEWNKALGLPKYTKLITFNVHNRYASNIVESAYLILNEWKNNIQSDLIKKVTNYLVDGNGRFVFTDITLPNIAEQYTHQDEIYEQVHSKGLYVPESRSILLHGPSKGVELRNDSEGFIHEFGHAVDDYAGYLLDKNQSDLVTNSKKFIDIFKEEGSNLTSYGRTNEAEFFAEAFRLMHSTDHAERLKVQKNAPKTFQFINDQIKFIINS

In the case of `N=C(N)c1ccc(Oc2ccc(-c3cc4ccc(C(=N)N)cc4[nH]3)cc2)cc1` [NSC 240898, 2-[4-(4-carbamimidoylphenoxy)phenyl]-1H-indole-6-carboximidamide], the MIC [1, 11] is reported as 4.42 µg/mL (≈ 12 µM), the “inhibition of botulinum neurotoxin serotype A light chain metalloprotease activity” value [2] is reported as “inhibit” and the “inhibition of the protease activity of anthrax lethal factor” value (from here on “inhibition … of anthrax lethal factor”) (anthrax lethal factor) is reported as “inhibit”. It also gave an MIC [3] of 4.42 µg/mL (≈ 12 µM).

`N=C(N)c1ccc2oc(/C=C/C=C/C=C/c3cc4cc(C(=N)N)ccc4o3)cc2c1` [NSC 308574, 2-[(1E,3E,5E)-6-(5-carbamimidoylbenzofuran-2-yl)hexa-1,3,5-trienyl]benzofuran-5-carboximidamide] was tested, and the MIC [1, 11] was 2.35 µg/mL (≈ 5.91 µM), the “inhibition of botulinum neurotoxin serotype A light chain metalloprotease activity” value [2] was “inhibit” and the “inhibition … of anthrax lethal factor” value (anthrax lethal factor) was “inhibit”. For the same molecule, the MIC [3] was 9.38 µg/mL (≈ 23.7 µM).

In the case of `C(=C\c1cc2ccc(C3=NCCN3)cc2[nH]1)/c1cc2ccc(C3=NCCN3)cc2[nH]1` [NSC 317880, 6-(4,5-dihydro-1H-imidazol-2-yl)-2-[(E)-2-[6-(4,5-dihydro-1H-imidazol-2-yl)-1H-indol-2-yl]ethenyl]-1H-indole], the “effect on spore germination” value (Sterne spores) is reported as “results to those of NSC 317881 were obtained”, the MIC (B. megaterium) is reported as 0.584 µg/mL (≈ 1.48 µM) and the MIC [4] is reported as 18.7 µg/mL (≈ 47.4 µM). For the same molecule, the MIC (K. pneumoniae) was > 18.7 µg/mL, the MIC (E. coli) was 0.584 µg/mL (≈ 1.48 µM) and the MIC (B. anthracis Ames) was 0.584 µg/mL (≈ 1.48 µM). The MIC [1, 11] was 0.292 µg/mL (≈ 0.74 µM), the MIC (P. aeruginosa PAO1) was 1.17 µg/mL (≈ 2.96 µM) and the MIC (Ames spores [5]) was 0.146 µg/mL (≈ 0.37 µM). It also gave an MIC [6] of 18.7 µg/mL (≈ 47.4 µM), an MIC (Burkholderia mallei) of 9.34 µg/mL (≈ 23.7 µM) and an MBC (Ames spores [7]) of 0.146 µg/mL (≈ 0.37 µM). For the same molecule, the MIC [8] was 2.33 µg/mL (≈ 5.92 µM), the MIC (E. feacalis) was 0.584 µg/mL (≈ 1.48 µM) and the MIC (B. pumilus) was 0.146 µg/mL (≈ 0.37 µM). For the same molecule, the “inhibition … of anthrax lethal factor” value (anthrax lethal factor) was “inhibit”, the MIC (Y. pestis) was 18.7 µg/mL (≈ 47.4 µM) and the MIC (S. aureus) was 1.17 µg/mL (≈ 2.96 µM). The MIC (B. brevis) was 0.584 µg/mL (≈ 1.48 µM), the MIC (B. licheniformis) was 2.33 µg/mL (≈ 5.92 µM) and the MIC (B. subtilis) was 0.292 µg/mL (≈ 0.74 µM). The MIC [3] was 1.17 µg/mL (≈ 2.96 µM) and the MIC (B. cepacia) was 18.7 µg/mL (≈ 47.4 µM).

In the case of `c1cc2cc(-c3ccc(-c4cc5ccc(C6=NCCN6)cc5[nH]4)cc3)[nH]c2cc1C1=NCCN1` [NSC 317881, 6-(4,5-dihydro-1H-imidazol-2-yl)-2-[4-[6-(4,5-dihydro-1H-imidazol-2-yl)-1H-indol-2-yl]phenyl]-1H-indole], the “effect on spore germination” value (Sterne spores) is reported as “does not have an effect on spore germination”, the “time after contact with germination medium by which treated spores were killed by heat” value (Sterne spores) is reported as ≤ 15 min and the MIC (B. megaterium) is reported as 0.323 µg/mL (≈ 0.727 µM). The MIC [4] was 20.7 µg/mL (≈ 46.5 µM), the MIC (K. pneumoniae) was 10.3 µg/mL (≈ 23.3 µM) and the MIC (E. coli) was 0.646 µg/mL (≈ 1.45 µM). It also gave an MIC (B. anthracis Ames) of 0.32 µg/mL (≈ 0.72 µM), an MIC ([1]; 22 h, read-out: MIC (figure legend)) of 0.084 µg/mL (≈ 0.189 µM) and an MIC [1, 11] of 0.162 µg/mL (≈ 0.364 µM). The MIC (P. aeruginosa PAO1) was 0.323 µg/mL (≈ 0.727 µM), the MIC (Ames spores [5]) was 0.162 µg/mL (≈ 0.364 µM) and the MIC [6] was > 20.7 µg/mL. For the same molecule, the MIC (Burkholderia mallei) was 10.3 µg/mL (≈ 23.3 µM), the “reduction in cfu as compared to the DMSO control” value (Sterne GFP spores) was “considerable reduction” and the “treatment time after which no viable spores were detected” value (Sterne GFP spores) was ~4 h. The MBC (Ames spores [7]) was 0.162 µg/mL (≈ 0.364 µM), the MIC [8] was 0.323 µg/mL (≈ 0.727 µM) and the MIC (E. feacalis) was 0.162 µg/mL (≈ 0.364 µM). For the same molecule, the MIC (B. pumilus) was 0.021 µg/mL (≈ 0.0472 µM), the “inhibition … of anthrax lethal factor” value (anthrax lethal factor) was “inhibit” and the MIC (Y. pestis) was 20.7 µg/mL (≈ 46.5 µM). It also gave an MIC (S. aureus) of 0.323 µg/mL (≈ 0.727 µM), an MIC (B. brevis) of 0.646 µg/mL (≈ 1.45 µM) and an MIC (B. licheniformis) of 0.646 µg/mL (≈ 1.45 µM). The MIC (B. subtilis) was 0.162 µg/mL (≈ 0.364 µM), the MIC [3] was 0.646 µg/mL (≈ 1.45 µM) and the MIC (B. cepacia) was > 20.7 µg/mL.

With `c1cc2cc(-c3ccc4cc(C5=NCCN5)[nH]c4c3)[nH]c2cc1C1=NCCN1` [NSC 330687, 2-(4,5-dihydro-1H-imidazol-2-yl)-6-[6-(4,5-dihydro-1H-imidazol-2-yl)-1H-indol-2-yl]-1H-indole] the “effect on spore germination” value (Sterne spores) was “results to those of NSC 317881 were obtained”, the MIC (B. megaterium) was 0.551 µg/mL (≈ 1.5 µM) and the MIC [4] was 17.6 µg/mL (≈ 47.9 µM). The MIC (K. pneumoniae) was > 17.6 µg/mL, the MIC (E. coli) was 1.1 µg/mL (≈ 2.99 µM) and the MIC (B. anthracis Ames) was 1.1 µg/mL (≈ 2.99 µM). For the same molecule, the MIC [1, 11] was 0.551 µg/mL (≈ 1.5 µM), the MIC (P. aeruginosa PAO1) was 17.6 µg/mL (≈ 47.9 µM) and the MIC (Ames spores [5]) was 0.276 µg/mL (≈ 0.749 µM). The MIC [6] was > 17.6 µg/mL, the MIC (Burkholderia mallei) was 8.82 µg/mL (≈ 23.9 µM) and the MBC (Ames spores [7]) was 0.276 µg/mL (≈ 0.749 µM). The MIC [8] was 2.2 µg/mL (≈ 5.97 µM), the MIC (E. feacalis) was 2.21 µg/mL (≈ 5.98 µM) and the MIC (B. pumilus) was 0.138 µg/mL (≈ 0.375 µM). It also gave an MIC (Y. pestis) of 8.82 µg/mL (≈ 23.9 µM), an MIC (S. aureus) of 1.1 µg/mL (≈ 2.99 µM) and an MIC (B. brevis) of 0.276 µg/mL (≈ 0.749 µM). For the same molecule, the MIC (B. licheniformis) was 2.21 µg/mL (≈ 5.99 µM), the MIC (B. subtilis) was 0.551 µg/mL (≈ 1.5 µM) and the MIC [3] was 1.1 µg/mL (≈ 2.99 µM). It also gave an MIC (B. cepacia) of 4.41 µg/mL (≈ 12 µM).

`NC(N)=NN=Cc1ccc2cc(-c3ccc(/C=N/N=C(N)N)cc3)sc2c1` [NSC 341909, 2-[[2-[4-[(E)-(diaminomethylidenehydrazinylidene)methyl]-phenyl]benzothiophen-6-yl]methylideneamino]guanidine] was tested, and the MIC [1, 11] was 4.51 µg/mL (≈ 11.9 µM), the “inhibition of botulinum neurotoxin serotype A light chain metalloprotease activity” value [2] was “inhibit” and the “inhibition … of anthrax lethal factor” value (anthrax lethal factor) was “inhibit”. It also gave an MIC [3] of 18 µg/mL (≈ 47.7 µM).

`c1cc2cc(-c3ccc4cc(-c5ccc6oc(C7=NCCN7)cc6c5)[nH]c4c3)[nH]c2cc1C1=NCCN1` [NSC 369718, 6-(4,5-dihydro-1H-imidazol-2-yl)-2-[2-[2-(4,5-dihydro-1H-imidazol-2-yl)benzofuran-5-yl]-1H-indol-6-yl]-1H-indole] was tested, and the MBC (B. vollum [9]) was 0.348 µg/mL (≈ 0.718 µM), the “effect on spore germination” value (Sterne spores) was “results to those of NSC 317881 were obtained” and the MIC (B. megaterium) was 0.348 µg/mL (≈ 0.718 µM). For the same molecule, the MIC (B. vollum [10]) was 0.348 µg/mL (≈ 0.718 µM), the MIC [4] was 2.78 µg/mL (≈ 5.75 µM) and the MIC (K. pneumoniae) was 5.57 µg/mL (≈ 11.5 µM). It also gave an MIC (E. coli) of 1.39 µg/mL (≈ 2.87 µM), an MIC (B. anthracis Ames) of 1.39 µg/mL (≈ 2.87 µM) and an MIC [1, 11] of 0.348 µg/mL (≈ 0.718 µM). The MIC (P. aeruginosa PAO1) was 1.39 µg/mL (≈ 2.87 µM), the MIC (Ames spores [5]) was 0.174 µg/mL (≈ 0.359 µM) and the MIC [6] was 2.79 µg/mL (≈ 5.75 µM). For the same molecule, the MIC (Burkholderia mallei) was 11.1 µg/mL (≈ 23 µM), the MBC (Ames spores [7]) was 0.174 µg/mL (≈ 0.359 µM) and the MIC [8] was 2.79 µg/mL (≈ 5.75 µM). For the same molecule, the MIC (E. feacalis) was 0.696 µg/mL (≈ 1.44 µM), the MIC (B. pumilus) was 0.348 µg/mL (≈ 0.718 µM) and the MIC (Y. pestis) was 1.39 µg/mL (≈ 2.87 µM). It also gave an MIC (S. aureus) of 0.696 µg/mL (≈ 1.44 µM), an MIC (B. brevis) of 0.174 µg/mL (≈ 0.359 µM) and an MIC (B. licheniformis) of 1.39 µg/mL (≈ 2.87 µM). For the same molecule, the MIC (B. subtilis) was 0.348 µg/mL (≈ 0.718 µM), the MIC [3] was 0.696 µg/mL (≈ 1.44 µM) and the MIC (B. cepacia) was 22.3 µg/mL (≈ 46 µM).
